Test results reported in PubChem BioAssay AID2060505 (Molecular Pharmacology Branch, DTP, NCI, 2025).

Tested on: 633275-114-R-J1-PDC complex spheroids, viability
Assay: Anticancer human tumor 633275-114-R-J1-PDC patient-derived endometrial adenocarcinoma cell line growth inhibition [GQUAD]
Details: for IC50: curve of first compound; for viability, T/C: stronger effect = lower value
Summary of the method: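 Multi-cell-type spheroids of tumor cells with HUVEC and mesenchymal stem cells, treated with drug combinations. Concentrations descend in half-log steps from near clinical Cmax, or from 10 microM where Cmax is unknown; viability read-out.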

[1] = second compound 0.0316 µM, first compound 0.0316 µM
[2] = second compound 0.0316 µM, first compound 0.1 µM
[3] = second compound 0.0316 µM, first compound 0.316 µM
[4] = second compound 0.0316 µM, first compound 1 µM
[5] = second compound 0.0316 µM, first compound 3.16 µM
[6] = second compound 0.0316 µM, first compound 10 µM
[7] = second compound 0.1 µM, first compound 0.0316 µM
[8] = second compound 0.1 µM, first compound 0.1 µM
[9] = second compound 0.1 µM, first compound 0.316 µM
[10] = second compound 0.1 µM, first compound 1 µM
[11] = second compound 0.1 µM, first compound 3.16 µM
[12] = second compound 0.1 µM, first compound 10 µM
[13] = second compound 0.316 µM, first compound 0.0316 µM
[14] = second compound 0.316 µM, first compound 0.1 µM
[15] = second compound 0.316 µM, first compound 0.316 µM
[16] = second compound 0.316 µM, first compound 1 µM
[17] = second compound 0.316 µM, first compound 3.16 µM
[18] = second compound 0.316 µM, first compound 10 µM
[19] = second compound 1 µM, first compound 0.0316 µM
[20] = second compound 1 µM, first compound 0.1 µM
[21] = second compound 1 µM, first compound 0.316 µM
[22] = second compound 1 µM, first compound 1 µM
[23] = second compound 1 µM, first compound 3.16 µM
[24] = second compound 1 µM, first compound 10 µM
[25] = second compound 3.16 µM, first compound 0.0316 µM
[26] = second compound 3.16 µM, first compound 0.1 µM
[27] = second compound 3.16 µM, first compound 0.316 µM
[28] = second compound 3.16 µM, first compound 1 µM
[29] = second compound 3.16 µM, first compound 3.16 µM
[30] = second compound 3.16 µM, first compound 10 µM
[31] = second compound 10 µM, first compound 0.0316 µM
[32] = second compound 10 µM, first compound 0.1 µM
[33] = second compound 10 µM, first compound 0.316 µM
[34] = second compound 10 µM, first compound 1 µM
[35] = second compound 10 µM, first compound 3.16 µM
[36] = second compound 10 µM, first compound 10 µM
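Also: spheroids exposed to the agents for seven days.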
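For viability, T/C in this document: percent of DMSO vehicle control viability which is 100%.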

## COc1ccc([C@@H](O)c2cc(-c3ncnc4cc(N5CCOCC5)ccc34)c(F)cc2Cl)nn1 + CN(C)c1ccc(Nc2c3ccc(NC(=O)CCN4CCCC4)cc3nc3cc(NC(=O)CCN4CCCC4)ccc23)cc1
Second compound 0.0316 µM
  IC50: 4670 nM
Second compound 0.1 µM
  IC50: 3730 nM
Second compound 0.316 µM
  IC50: 2640 nM
Second compound 1 µM
  IC50: 1710 nM
Second compound 3.16 µM
  IC50: 938 nM
Second compound 10 µM
  IC50: < 31.6 nM
[1]
  viability, T/C: 108%
[2]
  viability, T/C: 97.2%
[3]
  viability, T/C: 83.7%
[4]
  viability, T/C: 74.7%
[5]
  viability, T/C: 55.7%
[6]
  viability, T/C: 37.6%
[7]
  viability, T/C: 96%
[8]
  viability, T/C: 102%
[9]
  viability, T/C: 88.9%
[10]
  viability, T/C: 71.1%
[11]
  viability, T/C: 55.3%
[12]
  viability, T/C: 32.3%
[13]
  viability, T/C: 92.5%
[14]
  viability, T/C: 91.6%
[15]
  viability, T/C: 93.5%
[16]
  viability, T/C: 65.3%
[17]
  viability, T/C: 49.8%
[18]
  viability, T/C: 30.9%
[19]
  viability, T/C: 91.8%
[20]
  viability, T/C: 88%
[21]
  viability, T/C: 81.3%
[22]
  viability, T/C: 59.6%
[23]
  viability, T/C: 38.7%
[24]
  viability, T/C: 26.8%
[25]
  viability, T/C: 84.2%
[26]
  viability, T/C: 81.2%
[27]
  viability, T/C: 73.7%
[28]
  viability, T/C: 46.9%
[29]
  viability, T/C: 30.6%
[30]
  viability, T/C: 20.4%
[31]
  viability, T/C: 33.8%
[32]
  viability, T/C: 34.8%
[33]
  viability, T/C: 21.5%
[34]
  viability, T/C: 13.8%
[35]
  viability, T/C: 11.8%
[36]
  viability, T/C: 9.3%

## CC(C)(O)C1CCC(Nc2ccc3ncc(-c4cccc(C(F)(F)F)c4)n3n2)CC1 (stereo unspecified) + Cc1[nH]c2ccc(F)cc2c1-c1nc2c3cccnc3c3ncccc3c2[nH]1
Second compound 0.0316 µM
  IC50: 1970 nM
Second compound 0.1 µM
  IC50: 2010 nM
Second compound 0.316 µM
  IC50: 1780 nM
Second compound 1 µM
  IC50: 1910 nM
Second compound 3.16 µM
  IC50: 947 nM
Second compound 10 µM
  IC50: 1070 nM
[1]
  viability, T/C: 108%
[2]
  viability, T/C: 103%
[3]
  viability, T/C: 112%
[4]
  viability, T/C: 75.2%
[5]
  viability, T/C: 32.2%
[6]
  viability, T/C: 32.6%
[7]
  viability, T/C: 98.7%
[8]
  viability, T/C: 103%
[9]
  viability, T/C: 101%
[10]
  viability, T/C: 79.7%
[11]
  viability, T/C: 28.9%
[12]
  viability, T/C: 32.5%
[13]
  viability, T/C: 95.5%
[14]
  viability, T/C: 99.1%
[15]
  viability, T/C: 90.5%
[16]
  viability, T/C: 70.2%
[17]
  viability, T/C: 27.5%
[18]
  viability, T/C: 32.6%
[19]
  viability, T/C: 89.6%
[20]
  viability, T/C: 95.6%
[21]
  viability, T/C: 86.8%
[22]
  viability, T/C: 74.2%
[23]
  viability, T/C: 31%
[24]
  viability, T/C: 27%
[25]
  viability, T/C: 72.6%
[26]
  viability, T/C: 75.5%
[27]
  viability, T/C: 69.9%
[28]
  viability, T/C: 49.3%
[29]
  viability, T/C: 27.4%
[30]
  viability, T/C: 26.1%
[31]
  viability, T/C: 65.2%
[32]
  viability, T/C: 69.8%
[33]
  viability, T/C: 62.6%
[34]
  viability, T/C: 52.1%
[35]
  viability, T/C: 24.1%
[36]
  viability, T/C: 21.5%

## C#Cc1c(F)ccc2cc(O)cc(-c3ncc4c(N5CC6CCC(C5)N6)nc(OCC56CCCN5CC(F)C6)nc4c3F)c12 (stereo unspecified) + CN(C)c1ccc(Nc2c3ccc(NC(=O)CCN4CCCC4)cc3nc3cc(NC(=O)CCN4CCCC4)ccc23)cc1
Second compound 0.0316 µM
  IC50: > 10000 nM
Second compound 0.1 µM
  IC50: > 10000 nM
Second compound 0.316 µM
  IC50: > 10000 nM
Second compound 1 µM
  IC50: > 10000 nM
Second compound 3.16 µM
  IC50: 4360 nM
Second compound 10 µM
  IC50: < 31.6 nM
[1]
  viability, T/C: 108%
[2]
  viability, T/C: 90.5%
[3]
  viability, T/C: 86.9%
[4]
  viability, T/C: 91.9%
[5]
  viability, T/C: 78%
[6]
  viability, T/C: 66%
[7]
  viability, T/C: 101%
[8]
  viability, T/C: 97.8%
[9]
  viability, T/C: 91.5%
[10]
  viability, T/C: 96.7%
[11]
  viability, T/C: 81.5%
[12]
  viability, T/C: 65.3%
[13]
  viability, T/C: 94.6%
[14]
  viability, T/C: 101%
[15]
  viability, T/C: 86.8%
[16]
  viability, T/C: 82.3%
[17]
  viability, T/C: 71.9%
[18]
  viability, T/C: 68.1%
[19]
  viability, T/C: 97.5%
[20]
  viability, T/C: 96.5%
[21]
  viability, T/C: 87.2%
[22]
  viability, T/C: 85.9%
[23]
  viability, T/C: 70.6%
[24]
  viability, T/C: 54.9%
[25]
  viability, T/C: 81.9%
[26]
  viability, T/C: 86.3%
[27]
  viability, T/C: 81.6%
[28]
  viability, T/C: 66.3%
[29]
  viability, T/C: 62%
[30]
  viability, T/C: 28.1%
[31]
  viability, T/C: 32.5%
[32]
  viability, T/C: 29.2%
[33]
  viability, T/C: 23.3%
[34]
  viability, T/C: 23.6%
[35]
  viability, T/C: 16.1%
[36]
  viability, T/C: 5.22%
